Test results as given in patent publication US6136347A, “Flavor-masked pharmaceutical compositions” (Bayer Aktiengesellschaft, priority 1992, dated 2000).
Structures can show the parent of a compound that is named as a salt.

Test: in vitro release (dissolution) of active ingredient from microcapsules in strongly acidic (pH 1) and weakly acidic (pH 4.5) medium
Format: physicochemical
Details: for release of active ingredient from microcapsules (in words): strongly acidic and weakly acidic medium (pH 1 and 4.5)
Description: FIG. 1 is a graph depicting percent release as a function of time of an active ingredient from microcapsules prepared by spray solidification in carnauba wax.
FIGS. 2a and 2b are two graphs depicting percent release as a function of time of an active ingredient in, respectively, the hydrate and anhydrate forms.
FIGS. 3a and 3b are two graphs depicting percent release as a function of time of an active ingredient in, respectively, the hydrate and anhydrate forms.
FIGS. 4a and 4b are two graphs depicting percent release as a function of time of an active ingredient in, respectively, the hydrate and anhydrate forms.
FIGS. 5a and 5b are two graphs depicting percent release as a function of time of an active ingredient in, respectively, the hydrate and anhydrate forms.

Compound	release of active ingredient from microcapsules (in words)	release of active ingredient from wax-embedded microcapsules (in words) (embedded by method of EP-A-273,890 (carnauba wax, beeswax, ethylcellulose), FIG. 1, spray solidification in carnauba wax)	release of active ingredient from microcapsules (in words) (listed as ciprofloxacin betaine)
O=C(O)c1cn(C2CC2)c2cc(N3CCNCC3)c(F)cc2c1=O [ciprofloxacin HCl]	delayed		
O=C(O)c1cn(C2CC2)c2cc(N3CCNCC3)c(F)cc2c1=O [ciprofloxacin]		does not lead, however, to the required rapid release of active ingredient	a rapid release of active ingredient is guaranteed
